Assay [1] has as its target T1, NEP enzyme (Homo sapiens, UniProt P08473).
T1 construct: purchased R&D Systems, Minneapolis, Minn; 1182-ZN
Put plainly: NEP enzyme inhibition assay (fluorogenic peptide substrate). The assay is classed as biochemical. Conditions: values given as lower bounds; * = prodrugs, may not exhibit NEP activity in an in vitro assay; read-out: NEP pIC50 (converted). Here is the method: B. In Vitro Assays for the Quantitation of Inhibitor Potencies (IC50) at Human and Rat NEP, and Human ACE
The inhibitory activities of compounds at human and rat NEP and human ACE were determined using in vitro assays as described below.
Recombinant human NEP and recombinant human ACE were obtained commercially (R&D Systems, Minneapolis, Minn., catalog numbers 1182-ZN and 929-ZN, respectively). The fluorogenic peptide substrate Mca-BK2 (Mca-Arg-Pro-Pro-Gly-Phe-Ser-Ala-Phe-Lys(Dnp)-OH; Johnson et al. (2000) Anal. Biochem. 286: 112-118) was used for the human NEP and ACE assays, and Mca-RRL (Mca-DArg-Arg-Leu-(Dnp)-OH; Medeiros et al. (1997) Braz. J. Med. Biol. Res. 30:1157-1162) was used for the rat NEP assay (both from Anaspec, San Jose, Calif.).
The assays were performed in 384-well white opaque plates at room temperature using the respective fluorogenic peptides at a concentration of 10 μM in assay buffer (50 mM Tris/HCl at 25° C., 100 mM NaCl, 0.01% Tween-20, 1 μM Zn, 0.025% BSA). […] The rat NEP enzyme preparation was used at a concentration that yielded quantitative proteolysis of 3 μM of Mca-RRL within 20 minutes at room temperature.
Test compounds were diluted to 12 concentrations from 10 μM to 20 pM in Assay Buffer. Assays were started by adding 25 μL of enzyme to 12.5 μL of test compound at each of the 12 concentrations. Test compounds were allowed to equilibrate with the enzyme for 10 minutes before 12.5 μL of the fluorogenic substrates were added to initiate the reaction. Reactions were terminated by the addition of 10 μL of 3.6% glacial acetic acid after 20 minutes of incubation.
For sulfhydryl-containing test compounds, the test compounds may be diluted in Assay Buffer containing a 400 μM concentration of tris(2-carboxyethyl)phosphine hydrochloride (Thermo Scientific, Rockford, Ill.) (TCEP). The test compounds are then incubated for 40 minutes at room temperature (to allow for dimer cleavage) before adding the enzyme. Test compounds are then allowed to equilibrate with the enzyme for 20 minutes before adding the fluorogenic substrates. Reactions are terminated as above.
Plates were read on a fluorometer with excitation and emission wavelengths set to 320 nm and 405 nm, respectively. Raw data (relative fluorescence units) were normalized to % activity from the average high readings (no inhibition, 100% enzyme activity) and average low readings (full inhibition, highest inhibitor concentration, 0% enzyme activity) using three standard NEP and ACE inhibitors, respectively. Nonlinear regression of the normalized data was performed using a one site competition model (GraphPad Software, Inc., San Diego, Calif.). Data were reported as pIC50 values.

Assay [2] has as its target T2, human AT1 receptor (Homo sapiens, UniProt P30556).
T2 construct: expressed in transfected cells; host or cells: CHO-K1
T2 sequence (P30556 1-359): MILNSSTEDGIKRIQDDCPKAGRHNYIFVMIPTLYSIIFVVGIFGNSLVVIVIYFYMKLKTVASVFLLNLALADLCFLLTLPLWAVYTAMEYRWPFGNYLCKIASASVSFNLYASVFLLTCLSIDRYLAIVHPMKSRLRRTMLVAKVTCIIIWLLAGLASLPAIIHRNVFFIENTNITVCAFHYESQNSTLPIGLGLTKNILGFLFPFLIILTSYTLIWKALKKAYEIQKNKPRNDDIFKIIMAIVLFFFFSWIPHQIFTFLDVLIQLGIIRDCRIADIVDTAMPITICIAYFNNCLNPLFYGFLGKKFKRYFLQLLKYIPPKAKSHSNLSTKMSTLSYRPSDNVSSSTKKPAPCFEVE
Put plainly: AT1 radioligand binding assay (displacement of [Eu]AngII). To be noted: membranes of CHO-K1 cells expressing cloned human AT1 receptor; values given as lower bounds; read-out: AT1 pKi (converted). Here is the method: A. AT1 and AT2 Radioligand Binding Assays
These in vitro assays were used to assess the ability of test compounds to bind to the AT1 and the AT2 receptors.
Membrane Preparation from Cells Expressing Human AT1 or AT2 Receptors
Chinese hamster ovary (CHO-K1) derived cell lines stably expressing the cloned human AT1 or AT2 receptors, respectively, were grown in HAM's-F12 medium supplemented with 10% fetal bovine serum, 10 μg/ml penicillin/streptomycin, and 500 μg/ml geneticin in a 5% CO2 humidified incubator at 37° C. AT2 receptor expressing cells were grown in the additional presence of 100 nM PD123,319 (AT2 antagonist). When cultures reached 80-95% confluence, the cells were washed thoroughly in PBS and lifted with 5 mM EDTA. Cells were pelleted by centrifugation and snap frozen in MeOH-dry ice and stored at −80° C. until further use.
For membrane preparation, cell pellets were resuspended in lysis buffer (25 mM Tris/HCl pH 7.5 at 4° C., 1 mM EDTA, and one tablet of Complete Protease Inhibitor Cocktail Tablets with 2 mM EDTA per 50 mL buffer (Roche cat.#1697498, Roche Molecular Biochemicals, Indianapolis, Ind.)) and homogenized using a tight-fitting Dounce glass homogenizer (10 strokes) on ice. The homogenate was centrifuged at 1000×g, the supernatant was collected and centrifuged at 20,000×g. The final pellet was resuspended in membrane buffer (75 mM Tris/HCl pH 7.5, 12.5 mM MgCl2, 0.3 mM EDTA, 1 mM EGTA, 250 mM sucrose at 4° C.) and homogenized by extrusion through a 20G gauge needle. Protein concentration of the membrane suspension was determined by the method described in Bradford (1976) Anal Biochem. 72:248-54. Membranes were snap frozen in MeOH-dry ice and stored at −80° C. until further use.
Ligand Binding Assay to Determine Compound Affinities for the Human AT1 and AT2 Angiotensin Receptors
Binding assays were performed in 96-well Acrowell filter plates (Pall Inc., cat.#5020) in a total assay volume of 100 μL with 0.2 μg membrane protein for membranes containing the human AT1 receptor, or 2 μg membrane protein for membranes containing the human AT2 receptor in assay buffer (50 mM Tris/HCl pH 7.5 at 20° C., 5 mM MgCl2, 25 μM EDTA, 0.025% BSA). Saturation binding studies for determination of Kd values of the ligand were done using N-terminally Europium-labeled angiotensin-II ([Eu]AngII, H-(Eu-N^1)-Ahx-Asp-Arg-Val-Tyr-Ile-His-Pro-Phe-OH; PerkinElmer, Boston, Mass.) at 8 different concentrations ranging from 0.1 nM to 30 nM. […] Drugs were dissolved to a concentration of 1 mM in DMSO and from there serially diluted into assay buffer. Non-specific binding was determined in the presence of 10 μM unlabeled angiotensin-II. Assays were incubated for 120 minutes in the dark, at room temperature or 37° C., and binding reactions were terminated by rapid filtration through the Acrowell filter plates followed by three washes with 200 μL ice cold wash buffer (50 mM Tris/HCl pH 7.5 at 4° C., 5 mM MgCl2) using a Waters filtration manifold. Plates were tapped dry and incubated with 50 μl DELFIA Enhancement Solution (PerkinElmer cat.#4001-0010) at room temperature for 5 minutes on a shaker. Filter-bound [Eu]AngII was quantitated immediately on a Fusion plate reader (PerkinElmer) using Time Resolved Fluorescence (TRF). Binding data were analyzed by nonlinear regression analysis with the GraphPad Prism Software package (GraphPad Software, Inc., San Diego, Calif.) using the 3-parameter model for one-site competition. The BOTTOM (curve minimum) was fixed to the value for nonspecific binding, as determined in the presence of 10 μM angiotensin II. Ki values for drugs were calculated from observed IC50 values and the Kd value of [Eu]AngII according to the Cheng-Prusoff equation described in Cheng et al. (1973) Biochem Pharmacol. 22 (23):3099-108. Selectivities of test compounds for the AT1 receptor over the AT2 receptor were calculated as the ratio of AT2Ki/AT1Ki. […]

T1 sequence (P08473 52-750 limits assumed): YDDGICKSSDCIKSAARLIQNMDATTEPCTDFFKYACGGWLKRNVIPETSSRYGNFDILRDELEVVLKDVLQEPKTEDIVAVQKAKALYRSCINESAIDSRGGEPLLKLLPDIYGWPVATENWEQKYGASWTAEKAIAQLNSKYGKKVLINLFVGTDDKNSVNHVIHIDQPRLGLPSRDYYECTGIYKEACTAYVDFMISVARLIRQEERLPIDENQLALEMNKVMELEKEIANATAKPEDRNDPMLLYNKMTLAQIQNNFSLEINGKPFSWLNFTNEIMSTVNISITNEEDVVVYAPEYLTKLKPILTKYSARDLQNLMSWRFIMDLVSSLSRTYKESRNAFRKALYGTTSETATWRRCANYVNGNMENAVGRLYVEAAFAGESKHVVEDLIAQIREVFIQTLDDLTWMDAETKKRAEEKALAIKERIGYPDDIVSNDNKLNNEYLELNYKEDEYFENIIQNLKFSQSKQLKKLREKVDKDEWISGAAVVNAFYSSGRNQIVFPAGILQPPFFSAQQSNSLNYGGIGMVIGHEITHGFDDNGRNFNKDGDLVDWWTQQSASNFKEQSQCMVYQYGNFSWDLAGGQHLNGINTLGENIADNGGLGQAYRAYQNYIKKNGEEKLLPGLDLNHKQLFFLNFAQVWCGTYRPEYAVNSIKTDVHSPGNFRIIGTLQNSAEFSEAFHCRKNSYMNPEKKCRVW

As for `CCCc1cc(C(=O)N[C@H](Cc2ccccc2)[C@@H](O)C(=O)O)nn1Cc1ccc(-c2ccccc2S(=O)(=O)NC(=O)CCOC)cc1` [Example 7-17, (2R,3R)-2-Hydroxy-3-({1-[2′-(3-methoxy-propionylsulfamoyl)biphenyl-4-ylmethyl]-5-propyl-1H-pyrazole-3-carbonyl}amino)-4-phenylbutyric acid], the IC50 in assay [1] was ≤ 100 nM. Besides, the Ki in assay [2] is ≤ 10 nM.

`CCCc1cc(C(=O)NC(CC(=O)NO)CC(C)C)nn1Cc1ccc(-c2ccccc2S(=O)(=O)NC(C)=O)c(F)c1` (stereo not shown) [Example 6-21, 1-(2′-Acetylsulfamoyl-2-fluorobiphenyl-4-ylmethyl)-5-propyl-1H-pyrazole-3-carboxylic acid (1-hydroxycarbamoylmethyl-3-methylbutyl)amide]: in assay [1], the IC50 is ≤ 100 nM. Moreover, the Ki in assay [2] is ≤ 10 nM.

As to `CCOc1cc(C(=O)N[C@@H](CC(=O)O)Cc2ccccc2)nn1Cc1ccc(-c2ccccc2-c2nnn[nH]2)cc1` [Example 3-32, (R)-3-({5-Ethoxy-1-[2′-(1H-tetrazol-5-yl)biphenyl-4-ylmethyl]-1H-pyrazole-3-carbonyl}amino)-4-phenylbutyric acid], the IC50 in assay [1] was ≤ 10000 nM. For the same compound, in assay [2], the Ki was ≤ 100 nM.

As for `CCCc1cc(C(=O)N[C@@H](CC(=O)O)Cc2ccccc2)nn1Cc1ccc(-c2ccccc2S(=O)(=O)NC(C)=O)nc1` [Example 14-15, (R)-3-({1-[6-(2-Acetylsulfamoylphenyl)-pyridin-3-ylmethyl]-5-propyl-1H-pyrazole-3-carbonyl}-amino)-4-phenylbutyric acid], in assay [1], the IC50 was ≤ 1000 nM. Further, the Ki in assay [2] was ≤ 10 nM.

As for `CCCc1cc(C(=O)N[C@@H](CC(=O)O)Cc2ccccc2C(F)(F)F)nn1Cc1ccc(-c2ccccc2-c2nnn[nH]2)cc1F` [Example 3-21, (R)-3-(1-((3-fluoro-2′-(1H-tetrazol-5-yl)biphenyl-4-yl)methyl)-5-propyl-1H-pyrazole-3-carboxamido)-4-(2-(trifluoromethyl)phenyl)butanoic acid], the IC50 in assay [1] is ≤ 1000 nM. In addition, the Ki in assay [2] is ≤ 100 nM.

With `CCCc1cc(C(=O)N[C@H](Cc2ccccc2)[C@@H](O)C(=O)O)nn1Cc1ccc(-c2ccccc2S(=O)(=O)NC(=O)c2cc(C)on2)cc1` [Example 7-5, (2R,3R)-2-Hydroxy-3-[(1-{2′[(5-methylisoxazole-3-carbonyl)sulfamoyl]biphenyl-4-ylmethyl}-5-propyl-1H-pyrazole-3-carbonyl)amino]-4-phenylbutyric acid], the IC50 in assay [1] was ≤ 1000 nM. The Ki in assay [2] is ≤ 10 nM.

Regarding `CCCc1cc(C(=O)N[C@H](Cc2ccccc2)[C@@H](O)C(=O)O)nn1Cc1ccc(-c2ccccc2-c2nnn[nH]2)cn1` [Example 15-1, (2R,3R)-2-Hydroxy-4-phenyl-3-[(5-propyl-1-{5-[2-(1H-tetrazol-5-yl)phenyl]pyridin-2-ylmethyl}-1H-pyrazole-3-carbonyl)amino]butyric acid], the IC50 in assay [1] was ≤ 1000 nM. Further, the Ki in assay [2] is ≤ 10 nM.

`CCCc1cc(C(=O)N[C@@H](CC(=O)O)Cc2ccccc2Cl)nn1Cc1ccc(-c2ccccc2-c2nnn[nH]2)cc1F` [Example 3-20, (R)-4-(2-chlorophenyl)-3-(1-((3-fluoro-2′-(1H-tetrazol-5-yl)biphenyl-4-yl)methyl)-5-propyl-1H-pyrazole-3-carboxamido)butanoic acid]: in assay [1], the IC50 was ≤ 1000 nM. In assay [2], the Ki is ≤ 100 nM.

In the case of `CCCc1cc(C(=O)N[C@@H](CC(=O)O)Cc2ccccc2C(F)(F)F)nn1Cc1ccc(-c2ccccc2S(=O)(=O)NC(C)=O)cc1` [Example 6-25, (R)-3-{[1-(2′-Acetylsulfamoylbiphenyl-4-ylmethyl)-5-propyl-1H-pyrazole-3-carbonyl]amino}-4-(2-trifluoromethylphenyl)butyric acid], the IC50 in assay [1] was ≤ 1000 nM. Also, the Ki in assay [2] is ≤ 10 nM.

In the case of `CCCc1cc(C(=O)N[C@H](Cc2ccccc2)[C@@H](O)C(=O)O)nn1Cc1ccc(-c2ccccc2-c2nnn[nH]2)nc1` [Example 14-1, (2R,3R)-2-Hydroxy-4-phenyl-3-[(5-propyl-1-{6-[2-(1H-tetrazol-5-yl)-phenyl]pyridin-3-ylmethyl}-1H-pyrazole-3-carbonyl)amino]butyric acid], in assay [1], the IC50 is ≤ 100 nM. For the same compound, the Ki in assay [2] is ≤ 10 nM.

In the case of `CCCc1cc(C(=O)N[C@@H](CC(=O)O)Cc2ccccc2)nn1Cc1ccc(-c2ccccc2-n2nn[nH]c2=O)cc1` [Example 16-4, (R)-3-({1-[2′-(5-Oxo-4,5-dihydrotetrazol-1-yl)biphenyl-4-ylmethyl]-5-propyl-1H-pyrazole-3-carbonyl}amino)-4-phenylbutyric acid], the IC50 in assay [1] was ≤ 1000 nM. Also, the Ki in assay [2] was ≤ 10 nM.

(Values after patent US8350027B2, “Dual-acting pyrazole antihypertensive agents” (Theravance, Inc., priority 2009, dated 2013).)
